Measured values taken from the supplement of paper PMC11208160.

Test: recombinant UMI read abundance after kanamycin selection (control-corrected) (log10(CPM+1)); higher = more efficient recombination; extreme values may be limits of the assay; sequences stand for … in AGTGCAGAGAAAATCGGCCAGTTTTCTCTGCCTGCAGTCCGCATGCCGTGGGACCCCTTGGGTTCTAACCTGTTGCCTAGATTTATGCAGCGGACTGCCTTTCTCCCAAAGTGATAAACCGG…AGGTTGGTTTCACT; site = the 11-nt donor
How it was run: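 Pooled Escherichia coli screen of donor and donor-binding-loop pairs for the IS621 bridge recombinase. Each pair sits with a 12-nt UMI on a plasmid carrying a promoterless kanamycin gene. The library was co-electroporated with a target plasmid encoding a fixed target and T7-inducible recombinase, then plated with IPTG (0.07 mM) plus kanamycin, or unselected, each in two replicates. Recombinant UMIs were PCR-amplified across the donor–target junction and sequenced. Counts became CPM, averaged over replicates, scaled by control-derived factors and reported as log10(CPM+1).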

Row | Sequence | recombinant UMI read abundance (log10)
1 | GTTTGCACATGGACCGGTTTTCCCGGTAATCCGTATTTGTA (site GTGTGCACTTA) | 0.0346
2 | GTTTGCACATGGACCGGTTTTCCCGGTAATCCGTATTTGTA (site GTTTGCACTTA) | 0.721
3 | GTTTGGACATGGACCGGTTTTCCCGGTAATCCGTATTTGAC (site GATTGGACTGT) | 0
4 | GTTTGGACATGGACCGGTTTTCCCGGTAATCCGTATTTGAC (site GCTTGGACTGT) | 1
5 | GTTTGGACATGGACCGGTTTTCCCGGTAATCCGTATTTGAC (site GGTTGGACTGT) | 0
6 | GTTTGGACATGGACCGGTTTTCCCGGTAATCCGTATTTGAC (site GTTTGGACTGT) | 1.91
7 | TAAAGCCCATGGACCGGTTTTCCCGGTAATCCGTATTTGTA (site TAAAGACCTTA) | 0.00168
8 | TAAAGCCCATGGACCGGTTTTCCCGGTAATCCGTATTTGTA (site TAAAGCCCTTA) | 1.58
9 | TAAAGCCCATGGACCGGTTTTCCCGGTAATCCGTATTTGTA (site TAAAGGCCTTA) | 0.00691
10 | TAAAGCCCATGGACCGGTTTTCCCGGTAATCCGTATTTGTA (site TAAAGTCCTTA) | 0.0272
11 | TAAAGGGCATGGACCGGTTTTCCCGGTAATCCGTATTTGTG (site TAAAGGGCTCA) | 1.23
12 | TAAAGTACATGGACCGGTTTTCCCGGTAATCCGTATTTGTA (site TAAAGTACTTA) | 1.41
13 | TAAAGTACATGGACCGGTTTTCCCGGTAATCCGTATTTGTA (site TAAAGTCCTTA) | 0.00305
14 | TAAAGTACATGGACCGGTTTTCCCGGTAATCCGTATTTGTA (site TAAAGTGCTTA) | 0.204
15 | TAAAGTACATGGACCGGTTTTCCCGGTAATCCGTATTTGTA (site TAAAGTTCTTA) | 0
16 | TAAAGTCCATGGACCGGTTTTCCCGGTAATCCGTATTTGAA (site TAAAGTCCTTA) | 0.00424
17 | TAAAGTCCATGGACCGGTTTTCCCGGTAATCCGTATTTGAA (site TAAAGTCCTTC) | 0.144
18 | TAAAGTCCATGGACCGGTTTTCCCGGTAATCCGTATTTGAA (site TAAAGTCCTTG) | 0
19 | TAAAGTCCATGGACCGGTTTTCCCGGTAATCCGTATTTGAA (site TAAAGTCCTTT) | 0.775
20 | TAACCCACATGGACCGGTTTTCCCGGTAATCCGTATTTGTG (site TAACCCACTCA) | 0.0264
21 | TAACCTTCATGGACCGGTTTTCCCGGTAATCCGTATTTGGT (site TAACCTTCTAC) | 0.00557
22 | TAACCTTCATGGACCGGTTTTCCCGGTAATCCGTATTTGGT (site TACCCTTCTAC) | 0.00501
23 | TAACCTTCATGGACCGGTTTTCCCGGTAATCCGTATTTGGT (site TAGCCTTCTAC) | 0.244

Row | Sequence | recombinant UMI read abundance (log10)
24 | TAACCTTCATGGACCGGTTTTCCCGGTAATCCGTATTTGGT (site TATCCTTCTAC) | 0
25 | TAACTAGCATGGACCGGTTTTCCCGGTAATCCGTATTTGCG (site TAACTAGCTCG) | 0
26 | TAACTCCCATGGACCGGTTTTCCCGGTAATCCGTATTTGGC (site TAACTCCCTGC) | 0.847
27 | TAACTTCCATGGACCGGTTTTCCCGGTAATCCGTATTTGCA (site TAACTTCCTTG) | 0.949
28 | TAAGAAACATGGACCGGTTTTCCCGGTAATCCGTATTTGCT (site TAAGAAACTAG) | 2.12
29 | TAAGACCCATGGACCGGTTTTCCCGGTAATCCGTATTTGTT (site TAAGACCCTAA) | 0.806
30 | TAAGCAGCATGGACCGGTTTTCCCGGTAATCCGTATTTGCT (site AAAGCAGCTAG) | 0.00963
31 | TAAGCAGCATGGACCGGTTTTCCCGGTAATCCGTATTTGCT (site CAAGCAGCTAG) | 0.371
32 | TAAGCAGCATGGACCGGTTTTCCCGGTAATCCGTATTTGCT (site GAAGCAGCTAG) | 0.00441
33 | TAAGCAGCATGGACCGGTTTTCCCGGTAATCCGTATTTGCT (site TAAGCAGCTAG) | 2.32
34 | TAAGGTCCATGGACCGGTTTTCCCGGTAATCCGTATTTGTA (site TAAAGTCCTTA) | 0.294
35 | TAAGGTCCATGGACCGGTTTTCCCGGTAATCCGTATTTGTA (site TAACGTCCTTA) | 0.0087
36 | TAAGGTCCATGGACCGGTTTTCCCGGTAATCCGTATTTGTA (site TAAGGTCCTTA) | 2.08
37 | TAAGGTCCATGGACCGGTTTTCCCGGTAATCCGTATTTGTA (site TAATGTCCTTA) | 0.00238
38 | TAAGGTGCATGGACCGGTTTTCCCGGTAATCCGTATTTGTA (site TAAGGTGCTTA) | 2.58
39 | TAAGTCACATGGACCGGTTTTCCCGGTAATCCGTATTTGGG (site AAAGTCACTCC) | 0.0244
40 | TAAGTCACATGGACCGGTTTTCCCGGTAATCCGTATTTGGG (site CAAGTCACTCC) | 0.0119
41 | TAAGTCACATGGACCGGTTTTCCCGGTAATCCGTATTTGGG (site GAAGTCACTCC) | 0.00751
42 | TAAGTCACATGGACCGGTTTTCCCGGTAATCCGTATTTGGG (site TAAGTCACTCC) | 0.00997
43 | TAAGTGCCATGGACCGGTTTTCCCGGTAATCCGTATTTGAC (site TAAGTGCCTGT) | 0.999
44 | TAATATCCATGGACCGGTTTTCCCGGTAATCCGTATTTGTC (site TAATATCCTGA) | 0.252
45 | TAATGAGCATGGACCGGTTTTCCCGGTAATCCGTATTTGGC (site TAATGAGCTAC) | 0.253
46 | TAATGAGCATGGACCGGTTTTCCCGGTAATCCGTATTTGGC (site TAATGAGCTCC) | 0.0259

Row | Sequence | recombinant UMI read abundance (log10)
47 | TAATGAGCATGGACCGGTTTTCCCGGTAATCCGTATTTGGC (site TAATGAGCTGC) | 2.42
48 | TAATGAGCATGGACCGGTTTTCCCGGTAATCCGTATTTGGC (site TAATGAGCTTC) | 0.585
49 | TAATGGCCATGGACCGGTTTTCCCGGTAATCCGTATTTGAT (site TAATGGCCTAT) | 0.00507
50 | TACAAACCATGGACCGGTTTTCCCGGTAATCCGTATTTGGT (site AACAAACCTAC) | 0
51 | TACAAACCATGGACCGGTTTTCCCGGTAATCCGTATTTGGT (site CACAAACCTAC) | 0.0034
52 | TACAAACCATGGACCGGTTTTCCCGGTAATCCGTATTTGGT (site GACAAACCTAC) | 0
53 | TACAAACCATGGACCGGTTTTCCCGGTAATCCGTATTTGGT (site TACAAACCTAC) | 0.00495
54 | TACAATTCATGGACCGGTTTTCCCGGTAATCCGTATTTGCC (site TACAATTCTGG) | 0.00632
55 | TACAATTCATGGACCGGTTTTCCCGGTAATCCGTATTTGCC (site TCCAATTCTGG) | 0
56 | TACAATTCATGGACCGGTTTTCCCGGTAATCCGTATTTGCC (site TGCAATTCTGG) | 0.434
57 | TACAATTCATGGACCGGTTTTCCCGGTAATCCGTATTTGCC (site TTCAATTCTGG) | 0
58 | TACAGCGCATGGACCGGTTTTCCCGGTAATCCGTATTTGGC (site TACAGCGCTGC) | 2.37
59 | TACAGTACATGGACCGGTTTTCCCGGTAATCCGTATTTGGT (site TACAGTACTAC) | 0.439
60 | TACAGTCCATGGACCGGTTTTCCCGGTAATCCGTATTTGCG (site TACAGTCCTCG) | 0.004
61 | TACATAGCATGGACCGGTTTTCCCGGTAATCCGTATTTGGG (site TACATAGCTCC) | 0.013
62 | TACATGGCATGGACCGGTTTTCCCGGTAATCCGTATTTGCT (site TACATGGCTAG) | 1.32
63 | TACCACACATGGACCGGTTTTCCCGGTAATCCGTATTTGTC (site TACCACACTGA) | 2.09
64 | TACCTAGCATGGACCGGTTTTCCCGGTAATCCGTATTTGAA (site TAACTAGCTTT) | 0
65 | TACCTAGCATGGACCGGTTTTCCCGGTAATCCGTATTTGAA (site TACCTAGCTTT) | 0.00543
66 | TACCTAGCATGGACCGGTTTTCCCGGTAATCCGTATTTGAA (site TAGCTAGCTTT) | 0
67 | TACCTAGCATGGACCGGTTTTCCCGGTAATCCGTATTTGAA (site TATCTAGCTTT) | 0.0166
68 | TACCTGACATGGACCGGTTTTCCCGGTAATCCGTATTTGTG (site TACCTGACTCA) | 0.0209
